Read-outs that look alike come from different tables or passages of the source. Marks after values point to notes of the source that are not given here.
Test: Inhalation exposure: Compound A concentration in lung, plasma and BALF (Example 2)
Type: in vivo, BALB/c mice
Details: for concentration at 2 h / concentration at 4 h / concentration at 8 h / concentration at 12 h / concentration at 24 h / concentration at 0.083 h / concentration at 0.25 h / concentration at 0.5 h / concentration at 1 h: male, BALB/c, mouse, lung, inhaled, read-out: Compound A concentration Lung; for concentration at 2 h / concentration at 4 h / concentration at 8 h / concentration at 12 h / concentration at 24 h / concentration at 0.083 h / concentration at 0.25 h / concentration at 0.5 h / concentration at 1 h / Compound A concentration Plasma: mice, 30 min inhalation
Protocol: A series of compositions for pulmonary delivery were prepared by making a 20% suspension of compound A in a 5% tyloxapol solution in water. Particle size reduction was achieved using a colloid mill (magicLAB®, MK module, for 6 hours @ 12,000 rpm, while maintaining a temperature below 50° C.). Samples at 4% w/v compound A were prepared by dilution with DI water.
Low (0.02 mg/L), mid (0.07 mg/L), and high (0.20 mg/L) target aerosol concentrations 0.3% Compound A/0.075% tyloxapol, 0.6% Compound A/0.15% tyloxapol, and 1.5% Compound A/0.375% tyloxapol suspensions were used. These low, mid, and high target formulations were prepared as follows: […]
4% compound A and 1% tyloxapol were removed from refrigeration and approximately 2.25, 4.5, and 12 mL were transferred into clean 50 mL graduated plastic tubes, labeled 0.3% A/0.075% tyloxapol, 0.6% A/0.15% tyloxapol, and 1.5% A/0.375% tyloxapol suspensions and allowed to warm to room temperature. Each was diluted to 20 mL with ultra pure water and vortexed until completely mixed. Each formulation was made the morning of exposure to alleviate any storing/stability issues.
Eighty-seven (87) male BALB/c mice (8 weeks of age on arrival and 18.6-24.6 g on exposure day) were purchased from Charles River Laboratories (Raleigh, N.C.). The three animals with the lowest body weights and the three with the highest body weights were excluded from the study on the day of randomization. The remaining eighty-one (81) animals were assigned to the study. Temperatures and relative humidity (RH) in animal housing areas were within the target range specified in the protocol.
Animals were exposed to one of three concentrations of Compound A aerosols for a target of 30 min.
The actual concentrations of test article in the exposure atmospheres were determined by chemical analysis of timed filter samples collected directly from a nose-only exposure port during exposure. In addition, one impactor sample was obtained to verify particle size distribution (PSD), which is characterized by mass median aerodynamic diameter (MMAD) and geometric standard deviation (GSD). The filters and impactor stages were analyzed chemically by LRRI and are described below.

[1] = nominal aerosol 0.02 mg/L, 12 h
[2] = nominal aerosol 0.02 mg/L, 24 h
[3] = nominal aerosol 0.07 mg/L, 0.083 h
[4] = nominal aerosol 0.07 mg/L, 0.25 h
[5] = nominal aerosol 0.07 mg/L, 0.5 h
[6] = nominal aerosol 0.07 mg/L, 12 h
[7] = nominal aerosol 0.07 mg/L, 24 h
[8] = nominal aerosol 0.2 mg/L, 0.083 h
[9] = nominal aerosol 0.2 mg/L, 0.25 h
[10] = nominal aerosol 0.2 mg/L, 0.5 h
[11] = mouse lung, aerosol conc. 0.02 mg/L
[12] = mouse lung, aerosol conc. 0.07 mg/L
[13] = mouse lung, aerosol conc. 0.2 mg/L

In the case of `Nc1nc(N)c2nc(-c3cccc(O)c3)c(-c3cccc(O)c3)nc2n1` [Compound A, 6,7-bis(3-hydroxyphenyl)-pteridine-2,4-diamine], the concentration at 2 h (nominal aerosol 0.02 mg/L, 2 h) is reported as 9550 ± 840 ng/g, the concentration at 4 h (nominal aerosol 0.02 mg/L, 4 h) is reported as 10500 ± 3250 ng/g and the concentration at 8 h (nominal aerosol 0.02 mg/L, 8 h) is reported as 5660 ± 3390 ng/g. It also gave a concentration at 12 h [1] of 8670 ± 2310 ng/g, a concentration at 24 h [2] of 3390 ± 2540 ng/g and a concentration at 0.083 h [3] of 20600 ± 10100 ng/g. For the same compound, the concentration at 0.25 h [4] was 16500 ± 2250 ng/g, the concentration at 0.5 h [5] was 16600 ± 600 ng/g and the concentration at 1 h (nominal aerosol 0.07 mg/L, 1 h) was 17200 ± 2430 ng/g. For the same compound, the concentration at 2 h (nominal aerosol 0.07 mg/L, 2 h) was 22700 ± 5090 ng/g, the concentration at 4 h (nominal aerosol 0.07 mg/L, 4 h) was 17000 ± 1620 ng/g and the concentration at 8 h (nominal aerosol 0.07 mg/L, 8 h) was 15900 ± 3310 ng/g. The concentration at 12 h [6] was 16800 ± 12500 ng/g, the concentration at 24 h [7] was 10800 ± 660 ng/g and the concentration at 0.083 h [8] was 41000 ± 10300 ng/g. The concentration at 0.25 h [9] was 39200 ± 12300 ng/g, the concentration at 0.5 h [10] was 67200 ± 39100 ng/g and the concentration at 1 h (nominal aerosol 0.2 mg/L, 1 h) was 37700 ± 8070 ng/g. It also gave a concentration at 2 h (nominal aerosol 0.2 mg/L, 2 h) of 49300 ± 15400 ng/g, a concentration at 4 h (nominal aerosol 0.2 mg/L, 4 h) of 44600 ± 2400 ng/g and a concentration at 8 h (nominal aerosol 0.2 mg/L, 8 h) of 44000 ± 12000 ng/g. For the same compound, the concentration at 12 h (nominal aerosol 0.2 mg/L, 12 h) was 40800 ± 6290 ng/g, the concentration at 24 h (nominal aerosol 0.2 mg/L, 24 h) was 26800 ± 2630 ng/g and the “Compound A concentration Plasma” value (nominal aerosol 0.02 mg/L, 0.083 h) was 2.16 (⅔) ng/mL. For the same compound, the “Compound A concentration Plasma” value (nominal aerosol 0.02 mg/L, 0.25 h) was “<LLOQ”, the “Compound A concentration Plasma” value (nominal aerosol 0.02 mg/L, 0.5 h) was 1.98 (⅔) ng/mL and the “Compound A concentration Plasma” value (nominal aerosol 0.02 mg/L, 1 h) was 1.19 (⅓) ng/mL. For the same compound, the “Compound A concentration Plasma” value (nominal aerosol 0.02 mg/L, 2 h) was “<LLOQ”, the “Compound A concentration Plasma” value (nominal aerosol 0.02 mg/L, 4 h) was “<LLOQ” and the “Compound A concentration Plasma” value (nominal aerosol 0.02 mg/L, 8 h) was “<LLOQ”. For the same compound, the “Compound A concentration Plasma” value [1] was “<LLOQ”, the “Compound A concentration Plasma” value [2] was “<LLOQ” and the “Compound A concentration Plasma” value [3] was 5.43 (⅓) ng/mL. The “Compound A concentration Plasma” value [4] was 1.03 (⅓) ng/mL, the “Compound A concentration Plasma” value [5] was 2.45 (⅓) ng/mL and the “Compound A concentration Plasma” value (nominal aerosol 0.07 mg/L, 1 h) was “<LLOQ”. The “Compound A concentration Plasma” value (nominal aerosol 0.07 mg/L, 2 h) was “<LLOQ”, the “Compound A concentration Plasma” value (nominal aerosol 0.07 mg/L, 4 h) was “<LLOQ” and the “Compound A concentration Plasma” value (nominal aerosol 0.07 mg/L, 8 h) was “<LLOQ”. The “Compound A concentration Plasma” value [6] was 2.05 (⅓) ng/mL, the “Compound A concentration Plasma” value [7] was “<LLOQ” and the “Compound A concentration Plasma” value [8] was 1.34 (⅔) ng/mL. The “Compound A concentration Plasma” value [9] was 1.43 (⅓) ng/mL, the “Compound A concentration Plasma” value [10] was 1.15 (⅓) ng/mL and the “Compound A concentration Plasma” value (nominal aerosol 0.2 mg/L, 1 h) was 1.62 (⅔) ng/mL. The “Compound A concentration Plasma” value (nominal aerosol 0.2 mg/L, 2 h) was 1.21 (⅓) ng/mL, the “Compound A concentration Plasma” value (nominal aerosol 0.2 mg/L, 4 h) was 1.21 (⅔) ng/mL and the “Compound A concentration Plasma” value (nominal aerosol 0.2 mg/L, 8 h) was 2.19 (⅓) ng/mL. For the same compound, the “Compound A concentration Plasma” value (nominal aerosol 0.2 mg/L, 12 h) was 2.08 (⅔) ng/mL, the “Compound A concentration Plasma” value (nominal aerosol 0.2 mg/L, 24 h) was “<LLOQ” and the Thalf (mouse BALF, aerosol conc. 0.02 mg/L) was 39.8 h. The Thalf (mouse BALF, aerosol conc. 0.07 mg/L) was 16.7 h, the Thalf (mouse BALF, aerosol conc. 0.2 mg/L) was 17.0 h and the “AUC(0-24)” value [11] was 176 µg·h/g. For the same compound, the AUCinf [11] was 247 µg·h/g, the Thalf (mouse lung, aerosol conc. 0.02 mg/L, Regression Coefficient is less than 0.9) was 14.5^# hrs and the “AUC(0-24)” value [12] was 373 µg·h/g. For the same compound, the AUCinf [12] was 757 µg·h/g, the Thalf (mouse lung, aerosol conc. 0.07 mg/L, Regression Coefficient is less than 0.9) was 24.6^# hrs and the “AUC(0-24)” value [13] was 938 µg·h/g. For the same compound, the AUCinf [13] was 1777 µg·h/g and the Thalf [13] was 21.7 h.
